Test results published in ChEMBL document CHEMBL1201862, “PubChem BioAssay data set” (2004).
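Cells were grown in 96-well plates and exposed to each compound for 48 hours at five concentrations; endpoints were interpolated linearly between bracketing concentrations, or set to the highest concentration if not reached. The concentration for 50% growth inhibition is given as GI50.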 The source made the active and inactive calls. Cut-off read from the data, not from the text of the source: active = GI50 up to about 1.1 µM and inactive = higher.

Assays:
Experiment in all cases: inhibition of tumour cell growth, NCI panel, 48 h
[1] = tested on: NCI/ADR-RES
[2] = tested on: SN12C
[3] = tested on: SNB-75
[4] = tested on: SW-620
[5] = tested on: UACC-257
[6] = tested on: T47D
[7] = tested on: RPMI-8226
[8] = tested on: HCT-15
[9] = tested on: HCT-116
[10] = tested on: K562
[11] = tested on: TK-10
[12] = tested on: SK-MEL-28
[13] = tested on: HL-60
[14] = tested on: SF-268
[15] = tested on: M14
[16] = tested on: MDA-MB-435
[17] = tested on: IGROV-1
[18] = tested on: NCI-H23
[19] = tested on: DMS-114
[20] = tested on: XF498

| SMILES | GI50 [1] | GI50 [2] | GI50 [3] | GI50 [4] | GI50 [5] | GI50 [6] | GI50 [7] | GI50 [8] [µM] | GI50 [9] | GI50 [10] | GI50 [11] | GI50 [12] | GI50 [13] | GI50 [14] | GI50 [15] | GI50 [16] | GI50 [17] | GI50 [18] | GI50 [19] | GI50 [20] |
| --- | --- | --- | --- | --- | --- | --- | --- | --- | --- | --- | --- | --- | --- | --- | --- | --- | --- | --- | --- | --- |
| Nc1c(C(=O)Nc2ccc([As](=O)(O)O)cc2)cnc2nnnn12 | > 100 µM (inactive) | > 100 µM (inactive) | > 100 µM (inactive) | > 100 µM (inactive) | > 100 µM (inactive) | > 100 µM (inactive) | > 100 µM (inactive) | > 100 | > 100 µM (inactive) | > 100 µM (inactive) | > 100 µM (inactive) | > 100 µM (inactive) | > 100 µM (inactive) | > 100 µM (inactive) | > 100 µM (inactive) | > 100 µM (inactive) | > 100 µM (inactive) | > 100 µM (inactive) |  |  |
| CCOC(=O)CNC(=O)c1nc[nH]c1/N=N/N(C)C |  | > 100 µM (inactive) | > 100 µM (inactive) | > 100 µM (inactive) | > 100 µM (inactive) |  | > 100 µM (inactive) | > 100 | > 100 µM (inactive) | > 100 µM (inactive) | > 100 µM (inactive) | > 100 µM (inactive) | > 100 µM (inactive) | > 100 µM (inactive) | > 100 µM (inactive) |  | > 100 µM (inactive) | > 100 µM (inactive) | > 100 µM (inactive) |  |
| COc1nc2c(nc(N)n2C2OC(CO)C(O)C(O)C2O)c(=O)[nH]1 (centres undefined) |  | > 100 µM (inactive) | > 100 µM (inactive) | > 100 µM (inactive) | > 100 µM (inactive) |  |  |  | > 100 µM (inactive) | > 100 µM (inactive) | > 100 µM (inactive) | > 100 µM (inactive) | > 100 µM (inactive) | > 100 µM (inactive) | > 100 µM (inactive) |  | > 100 µM (inactive) | > 100 µM (inactive) |  | > 100 µM (inactive) |
| CCOc1ccccc1NC(=O)CC(C(=O)OC)C(=O)C(=O)OC (centres undefined) |  | > 100 µM (inactive) |  | > 100 µM (inactive) | > 100 µM (inactive) |  | > 100 µM (inactive) | > 100 | > 100 µM (inactive) | > 100 µM (inactive) | > 100 µM (inactive) | > 100 µM (inactive) | > 100 µM (inactive) | > 100 µM (inactive) | > 100 µM (inactive) |  | > 100 µM (inactive) | > 100 µM (inactive) | > 100 µM (inactive) |  |
| CC1(C)OC2COC3(CNO)OC(C)(C)OC3C2O1 (centres undefined) |  | > 100 µM (inactive) | > 100 µM (inactive) | > 100 µM (inactive) | > 100 µM (inactive) |  |  | > 100 | > 100 µM (inactive) | > 100 µM (inactive) | > 100 µM (inactive) | > 100 µM (inactive) | 16.6 µM (inactive) | > 100 µM (inactive) | > 100 µM (inactive) |  | > 100 µM (inactive) | > 100 µM (inactive) | > 100 µM (inactive) |  |
| N#CC(C#N)=Cc1c[nH]c(=O)[nH]c1=O | > 100 µM (inactive) | > 100 µM (inactive) | > 100 µM (inactive) | 54.2 µM (inactive) | > 100 µM (inactive) | > 100 µM (inactive) | > 100 µM (inactive) | > 100 | > 100 µM (inactive) | > 100 µM (inactive) | > 100 µM (inactive) | > 100 µM (inactive) | > 100 µM (inactive) | > 100 µM (inactive) | > 100 µM (inactive) | > 100 µM (inactive) | > 100 µM (inactive) | > 100 µM (inactive) |  |  |
| COC1C=C(Nc2cccc(Cl)c2)C(=O)C1 (centres undefined) |  | 64.9 µM (inactive) | 43.9 µM (inactive) | 53.2 µM (inactive) | > 100 µM (inactive) |  |  |  | 40.2 µM (inactive) | 41.6 µM (inactive) | > 100 µM (inactive) | > 100 µM (inactive) | 36 µM (inactive) | 45.8 µM (inactive) | > 100 µM (inactive) |  | > 100 µM (inactive) | 41.5 µM (inactive) | 34.3 µM (inactive) | 26.9 µM (inactive) |
| N#CC1=C(N)C(C#N)(C#N)C(c2ccc(F)cc2)C=C1C1CC1 (centres undefined) | 14.5 µM (inactive) | 2.72 µM (inactive) | 6 µM (inactive) | 6.95 µM (inactive) | 9.12 µM (inactive) | 12.1 µM (inactive) | 7.05 µM (inactive) | 9.77 | 4.01 µM (inactive) | 6.03 µM (inactive) | 15.5 µM (inactive) | 12.4 µM (inactive) | 4.13 µM (inactive) | 4.81 µM (inactive) | 4.21 µM (inactive) | 3.22 µM (inactive) | 12.9 µM (inactive) | 4.22 µM (inactive) |  |  |
| [O-][S+]1c2ccccc2NC(c2ccc3ccccc3c2)CC1c1ccccc1 (centres undefined) |  | 32.6 µM (inactive) | 24.8 µM (inactive) | 20 µM (inactive) | 32.4 µM (inactive) |  | 21.6 µM (inactive) | 22.3 |  | 16 µM (inactive) | 35.4 µM (inactive) | 35.2 µM (inactive) | 24.3 µM (inactive) | 36.4 µM (inactive) | 40.5 µM (inactive) |  | 19.3 µM (inactive) | 16.7 µM (inactive) |  | 19.1 µM (inactive) |
